{
  "source": "patent US12180474B2",
  "about": "“Methods of treating porphyria” (University of Pittsburgh—Of the Commonwealth System of …, priority 2018, dated 2024)",
  "format_in_all_cases": "in vivo",
  "key": {"[1]": {"target": "T1, Porcupine (PORCN) (Mus musculus, UniProt Q9JJJ7)", "T1 construct": "from tissue; host or cells: whole mouse in vivo; liver and serum analysed", "T1 sequence (Q9JJJ7 1-461)": "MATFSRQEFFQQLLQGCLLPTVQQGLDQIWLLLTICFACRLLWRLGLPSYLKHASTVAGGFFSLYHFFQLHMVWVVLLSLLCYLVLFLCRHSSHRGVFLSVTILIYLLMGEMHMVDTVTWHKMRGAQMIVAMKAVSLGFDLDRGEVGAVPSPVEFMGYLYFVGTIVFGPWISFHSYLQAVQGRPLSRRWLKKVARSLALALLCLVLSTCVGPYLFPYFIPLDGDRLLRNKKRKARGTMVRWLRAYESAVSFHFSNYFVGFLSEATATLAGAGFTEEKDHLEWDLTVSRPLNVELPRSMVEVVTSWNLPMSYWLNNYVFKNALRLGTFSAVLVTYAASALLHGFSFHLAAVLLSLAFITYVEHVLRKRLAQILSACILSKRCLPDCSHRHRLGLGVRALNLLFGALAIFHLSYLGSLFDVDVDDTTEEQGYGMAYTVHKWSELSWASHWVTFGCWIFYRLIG", "experiment": "Wnt-C59 in WT1/WT2 mice, acute intermittent porphyria model (Example 3)", "settings": "30 mg/kg i.p., vs control group"}, "[2]": {"target": "T1, Porcupine (PORCN)", "experiment": "Wnt-C59, GS and p-mTOR IHC in DDC-fed WT1/WT2 mice (Example 4)", "source_text": "To test the effect of Wnt-C59 on GS and p-mTOR levels, two-month old WT1/WT2 mice were exposed to a DCC diet, as described in Example 1, and received i.p. injections of Wnt-C59, as described in Example 2. Livers from the control and experimental groups were utilized for IHC, as described in Example 1."}, "[3]": {"target": "T1, Porcupine (PORCN)", "experiment": "Wnt-C59 in DDC-fed CD-1 mice (Example 2)", "settings": "30 mg/kg i.p.", "description": "Two-month old CD-1 mice were started on a 0.1% DDC diet to induce porphyria. Three days after starting the diet, mice received intraperitoneal (i.p.) injections of 30 mg/kg Porcupine (PORCN) inhibitor Wnt-C59. The Wnt-C59 was delivered on a five days on, two days off schedule for two weeks. Mice were sacrificed 6 hours after the final dose of Wnt-C59. Serum and livers from the control and experimental groups were utilized for IHC, Western blotting, and biochemical assays, as described in Example 1."}, "[4]": {"settings": "five days on, two days off for two weeks, 0.1% DDC diet"}},
  "data": [
    {"smiles": "Cc1cc(-c2ccc(CC(=O)Nc3ccc(-c4cccnc4)cc3)cc2)ccn1", "note": "[Wnt-C59]", "values": [
      {"measurement": "ALA-D mRNA levels", "setting": "[1]", "value": "significantly reduced"},
      {"measurement": "ALA-S mRNA levels", "setting": "[1]", "value": "significantly reduced"},
      {"measurement": "p-mTOR protein expression (IHC)", "setting": "[2]; DCC diet and Wnt-C59 injection", "value": "no expression"},
      {"measurement": "GS protein expression (IHC)", "setting": "[2]; DDC diet and Wnt-C59 injection", "value": "no expression"},
      {"measurement": "glutamine synthetase (GS), β-catenin activity", "setting": "[3]; DDC diet", "value": "decrease"},
      {"measurement": "porphyrin accumulation (H&E)", "setting": "[3]; DDC diet", "value": "decreased"},
      {"measurement": "serum ALP", "setting": "[3]; [4]", "value": "significantly reduced"},
      {"measurement": "serum ALT", "setting": "[3]; [4]", "value": "significantly reduced"},
      {"measurement": "serum AST", "setting": "[3]; [4]", "value": "significantly reduced"},
      {"measurement": "serum total bilirubin", "setting": "[3]; [4]", "value": "significantly reduced"}
    ]}
  ]
}
